Test results reported in US10329542B2, “HBV RNAse H purification and enzyme inhibitors” (Saint Louis University, priority 2012, dated 2019).
Like-named read-outs stand apart in the source and are kept apart here.

Key:
[1] = target: T1, HBV genotype D RNAseH (HRHPL) (Hepatitis B virus genotype D subtype ayw, UniProt P03156, INS679M); assay: Oligonucleotide-directed RNAseH cleavage assay, HBV genotype D; assay type: biochemical; details: for Residual activity at 10 uM, Genotype D: ± standard deviation, 3 to 7 replicates; for Activity vs. HBV Biochemical vs. gtD: class by concentration giving inhibition (10, 20, 60 μM); for Residual activity at 10 uM, Genotype D / Inhibition of HBV genotype D RNAseH: 10 μM; for remaining activity at 10 µM: read-out: Residual activity at 10 uM, Genotype D; for IC50: read-out: IC50 against HBV genotype D RNAseH
T1 construct: HRHPL contains HBV genotype D (Genbank V01460) polymerase residues 684-845; made in house; host or cells: E. coli BL21 codon+

[2] = test system: HBV genotype C RNAseH; assay: Oligonucleotide-directed RNAseH cleavage assay, HBV genotype C; assay type: biochemical, Hepatitis B virus; details: class by concentration giving inhibition (10, 20, 60 μM)
Description: For the oligonucleotide-directed RNAseH cleavage assay (Gong et al., 2001), 6 μl protein extract (typical protein concentration 2.8 mg/ml) was mixed with 0.5 μg internally ^32P-labeled DRF+ RNA (nucleotides 2401-2605 of the duck HBV genome plus 60 nucleotides of flanking sequences from pBluescript) and 3 μg oligonucleotide D2507- or its corresponding negative control D2526+ on ice in 20 μl under the conditions in Table 1. Some reactions in FIG. 5 employed oligonucleotide D2543M-Sal or its D2453+ negative control as indicated. The reactions were incubated at 42° C. for 90 min. and terminated by addition of Laemmli protein loading buffer and boiling. The samples were resolved by 12% SDS-PAGE, the gels were stained with Coomassie blue to monitor protein loading, and labeled RNA was detected by autoradiography. Candidate inhibitors were dissolved in DMSO and added at the indicated concentrations during assembly of the reactions. Control reactions lacking the compounds contained DMSO as a vehicle control. The RNAseH autoradiograms were scanned and quantified with ImageJ. The oligonucleotides were: D2526+([…]; SEQ ID NO:8), D2507-([…]; SEQ ID NO:9), D2453+([…]; SEQ ID NO:10), and D2543M-Sal ([…]; SEQ ID NO:11).
Incremental improvements were developed in extraction of the HBV RNAseH from the bacterial cell pellets since the data were generated for Examples 1 and 2. Key among these was shifting from using a cup sonicator to a probe sonicator and reducing the duration of the sonication period from 3×60 second bursts to 3×20 second bursts. When the […] genotype C clone that had inconsistent activity under the old extraction conditions (FIG. 6C) was isolated under these conditions, it became consistently and robustly active (FIG. 16).

T1 sequence (P03156 680-832, added parts left off, stated change not applied): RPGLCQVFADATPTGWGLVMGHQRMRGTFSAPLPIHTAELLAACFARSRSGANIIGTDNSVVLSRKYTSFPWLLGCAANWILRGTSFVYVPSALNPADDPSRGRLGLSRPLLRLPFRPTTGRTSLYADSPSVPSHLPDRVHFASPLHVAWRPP

Row | Structure (SMILES) | Residual activity at 10 uM, Genotype D [1] | Activity vs. HBV Biochemical vs. gtD [1] | Activity vs. HBV Biochemical vs. gtC [2] | other results
1 | Cc1c2cc(O)c(=O)cc-2oc2cc(O)c(O)cc12 [Compound 8] | 33 ± 17 Percent DMSO control | ++ (++ inhibition at 20 μM) |  | Inhibition ([1]; below 5 μM): ineffective; Inhibition ([1]; between 10 and 30 μM): 40-85%
2 | COc1cc2c(cc1Cc1cccc(Cl)c1F)c(=O)c(C(=O)O)cn2[C@H](CO)C(C)C [Compound 10, Elvitegravir, reference compound] |  | ++ (++ inhibition at 20 μM) | ++ (++ inhibition at 20 μM) | Inhibition of HBV genotype D RNAseH [1]: inhibited the HBV RNAseH; remaining activity at 10 µM [1]: 30 ± 8%
3 | Cc1nnc(C(=O)NC(C)(C)c2nc(C(=O)NCc3ccc(F)cc3)c(O)c(=O)n2C)o1 [Compound 11, Raltegravir, reference compound] |  | ++ (++ inhibition at 20 μM) | ++ (++ inhibition at 20 μM) | Inhibition of HBV genotype D RNAseH [1]: inhibited the HBV RNAseH; remaining activity at 10 µM [1]: 29 ± 18%
4 | NCc1ccc(-c2ccc(Cc3cc(=O)n(O)c4ncccc34)cc2)cc1 [Compound 12, napthyridinone] | 28 ± 12 Percent DMSO control | +++ (+++ inhibition at 10 μM) | +++ (+++ inhibition at 10 μM) | IC50 [1]: 2.5 µM
5 | COc1ccc2ccccc2c1C=NNC(=O)c1cc(O)c(O)c(O)c1 [Compound 14] | 46 ± 20 Percent DMSO control | − (− no inhibition at 60 μM) |  | 
6 | CCOc1ccc(-c2c3cc(O)c(=O)cc-3oc3cc(O)c(O)cc23)cc1 [Compound 30] | 23 ± 6 Percent DMSO control | +++ (+++ inhibition at 10 μM) | ++ (++ inhibition at 20 μM) | 
7 | Cc1cc(=O)oc2cc(O)c(O)cc12 [Compound 34] | 30 ± 15 Percent DMSO control | ++ (++ inhibition at 20 μM) | +++ (+++ inhibition at 10 μM) | 
8 | [N-]=[N+]=NCc1cccc(C(=O)CC(=O)C(=O)O)c1 [Compound 40] | 21 ± 16 Percent DMSO control | +++ (+++ inhibition at 10 μM) |  | 
9 | CC(C)c1ccc(O)c(=O)c(O)c1 [Compound 46, beta-thujaplicinol] |  | +++ (+++ inhibition at 10 μM) | +++ (+++ inhibition at 10 μM) | Difference between IC50 against HIV-1 RNAseH and HBV RNAseH [1]: ~10 fold; IC50 ([1]; listed as β-thujaplicinol): 6 µM; IC50 ([1]; listed as βTJ): 5.9 ± 0.7 µM
